Assays:
human mGlu2 receptor = target: T1, human mGlu2 receptor (Homo sapiens, UniProt Q14416); experiment: [35S]GTPγS binding assay (mGluR2 negative allosteric modulation, glutamate ~EC80 60 μM); type: biochemical; settings: for Emax / GTPγS-hmGluR2 anGT Emax: maximal % inhibition relative to the control glutamate response (EC80 glutamate); for Emax: read-out: GTPγS-hmGluR2 anGT Emax; for IC50: membranes from CHO cells transfected with human mGlu2 receptor, glutamate ~EC80 (60 μM), pIC50 = −log IC50 (M), read-out: GTPγS-hmGluR2 anGT pIC50 (converted)
T1 construct: expressed in transfected cells; host or cells: CHO cells
Procedure: 1) [^35S]GTPγS Binding Assay
[^35S]GTPγS Binding Assay
Total reaction volume was 200 μl. […] Membrane-bound radioactivity was counted in a Topcount.

rats = experiment: Reversal of the effect of the mGluR2 PAM JNJ-42153605-induced inhibition of scopolamine-induced hyperlocomotion (SCOP JNJ-42153605); type: in vivo, rat; settings: PO (oral route), rats, reversal criterion total distance >1500 cm; for ED50: Rattus norvegicus
Procedure: 2) Reversal of the Effect of the mGluR2 PAM JNJ-42153605-Induced Inhibition of Scopolamine-Induced Hyperlocomotion Apparatus
Motor activity was measured in microprocessor-based motor activity arenas (closed gray PVC cylinders with a height of 39 cm and a diameter of 31 cm). Each arena was placed on an infrared LED (8×8 LEDs) lit box (white PVC squared box; 40×40 cm^2; height 12.5 cm. An infrared-sensitive tube camera and a white light source were mounted to the ceiling above the observation chamber to track the animal. The total distance traveled (cm) was recorded and analyzed using the Noldus Ethovision XT Video Tracking System (Version 7.0.418; Noldus, Wageningen, The Netherlands). The intensity of the light within the activity cages (measured in the centre at the level of the floor) ranged between 4 and 8 LUX.
The rats were pretreated with test compound or vehicle at 60 min before the start of the activity recordings and placed into individual cages. The rats were challenged with JNJ-42153605 (3-(cyclopropylmethyl)-7-(4-phenylpiperidin-1-yl)-8-(trifluoromethyl)[1,2,4]triazolo[4,3-a]pyridine; WO2010/130424; Cid et al. J. Med. Chem. 2012, 55, 8770-8789) (20 mg/kg, i.v.) 30 min before the start of the activity recording combined with scopolamine (0.16 mg/kg, i.v.) just before the start of the activity measurements. Immediately after the injection of scopolamine, the rats were placed into the activity monitors and total distance travelled over the first 30 min was measured.
Solvent-Pretreated Control Rats.
Animals receiving the combination of JNJ-42153605 and scopolamine (n=433) almost always travelled a distance of less than 1500 cm (<1500 cm) (only 2.5% of the control rats travelled a distance of more than 1500 cm (>1500 cm)). On the other hand, animals challenged with scopolamine alone (n=215) always travelled a total distance of more than 1500 cm (>1500 cm) and almost always (in 95.8% of the rats) a distance of more than 4400 cm (>4400 cm). […] For reversal of the inhibitory effect of JNJ-42153605 on the scopolamine-induced hyperlocomotion, the following all-or-none criteria were adopted: (1) reversal: total distance >1500 cm.

T1 sequence (Q14416 19-872): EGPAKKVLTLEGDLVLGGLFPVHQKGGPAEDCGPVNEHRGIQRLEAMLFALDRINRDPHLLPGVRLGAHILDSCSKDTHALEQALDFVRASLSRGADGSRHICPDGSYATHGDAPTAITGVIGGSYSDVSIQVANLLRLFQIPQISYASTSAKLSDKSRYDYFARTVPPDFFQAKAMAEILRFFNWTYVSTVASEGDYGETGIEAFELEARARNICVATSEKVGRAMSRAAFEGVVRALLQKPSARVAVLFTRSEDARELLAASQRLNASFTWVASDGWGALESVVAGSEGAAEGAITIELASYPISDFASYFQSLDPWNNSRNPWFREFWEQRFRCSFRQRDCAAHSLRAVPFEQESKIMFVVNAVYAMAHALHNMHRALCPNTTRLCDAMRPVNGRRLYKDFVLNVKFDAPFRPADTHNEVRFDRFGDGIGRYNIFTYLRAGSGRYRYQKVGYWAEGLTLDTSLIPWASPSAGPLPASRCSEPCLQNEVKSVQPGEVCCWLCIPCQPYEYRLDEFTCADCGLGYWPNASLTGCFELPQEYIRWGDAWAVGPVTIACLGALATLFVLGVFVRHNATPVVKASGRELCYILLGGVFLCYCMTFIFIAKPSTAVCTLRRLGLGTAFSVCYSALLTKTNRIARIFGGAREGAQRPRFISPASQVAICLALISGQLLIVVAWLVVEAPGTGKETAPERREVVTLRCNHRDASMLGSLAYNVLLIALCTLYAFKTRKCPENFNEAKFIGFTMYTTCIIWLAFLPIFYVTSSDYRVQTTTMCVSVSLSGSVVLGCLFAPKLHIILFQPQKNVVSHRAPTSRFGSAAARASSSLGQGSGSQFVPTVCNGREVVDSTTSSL

| Emax (human mGlu2 receptor) | IC50 (human mGlu2 receptor) | melting point | GTPγS-hmGluR2 anGT Emax (human mGlu2 receptor) | Structure (SMILES) | ED50 (rats) | ED50 SCOP JNJ-42153605 (rats) |
| --- | --- | --- | --- | --- | --- | --- |
| 106% | 1.2e-08 M | 287.45 °C |  | C[C@H]1CN(c2ccc(C(F)(F)F)cc2)C(=O)c2c(NC(=O)c3cnc(N)cn3)cnn21 [Co. No. 45] | > 2.5 mg/kg |  |
| 107% | 2.82e-09 M | 250.78 °C |  | C[C@H]1CN(c2ccc(C(F)(F)F)cc2)C(=O)c2c(NC(=O)c3ccc(N)cc3)cnn21 [Co. No. 204] | 0.318 mg/kg |  |
|  | 4.57e-09 M | 190 °C | 103% | COc1cccc(C(=O)Nc2cnn3c2C(=O)N(c2ccc(C(F)(F)F)cc2)C[C@@H]3C)n1 [Co. No. 20] | > 2.5 mg/kg |  |
| 106% | 9.77e-09 M | 115.19 °C |  | COc1cncc(C(=O)Nc2cnn3c2C(=O)N(c2ccc(C(F)(F)F)c(OC)c2)C[C@@H]3C)c1 [Co. No. 152] | > 0.63 mg/kg |  |
| 104% | 8.51e-09 M | 166.32 °C |  | COc1cc(N2C[C@H](C)n3ncc(NC(=O)c4cncc(C)c4)c3C2=O)ccc1C(F)(F)F [Co. No. 117] | > 0.63 mg/kg |  |
| 112% | 7.41e-09 M | 174.59 °C |  | COc1cncc(C(=O)Nc2cnn3c2C(=O)N(c2ccc(C(F)(F)F)cc2)C[C@@H]3C)c1 [Co. No. 32] | 1.26 mg/kg |  |
| 113% | 7.08e-09 M | 160.03 °C |  | COCc1cccc(C(=O)Nc2cnn3c2C(=O)N(c2ccc(C(F)(F)F)cc2)C[C@@H]3C)c1 [Co. No. 30] | > 2.5 mg/kg |  |
| 100% | 6.92e-09 M | 145.1 °C |  | Cc1cc(C(=O)Nc2cnn3c2C(=O)N(c2ccc(C(F)(F)F)cc2)C[C@@H]3C)ccn1 [Co. No. 29, 2-Methyl-N-[(7S)-7-methyl-4-oxo-5-[4-(trifluoromethyl)phenyl]-6,7-dihydropyrazolo[1,5-a]pyrazin-3-yl]pyridine-4-carboxamide] | > 2.5 mg/kg |  |
| 104% | 1e-08 M | 162.96 °C |  | COc1cc(N2C[C@H](C)n3ncc(NC(=O)c4cncc(F)c4)c3C2=O)ccc1C(F)(F)F [Co. No. 116] | > 0.63 mg/kg |  |
| 106% | 2.88e-09 M | 248.21 °C |  | COc1ccnc(N)c1C(=O)Nc1cnn2c1C(=O)N(c1ccc(C(F)(F)F)cc1)C[C@@H]2C (racemic) [Co. No. 193] | > 0.63 mg/kg |  |
| 112% | 8.13e-09 M | 219.91 °C |  | C[C@H]1CN(c2ccc(C(F)(F)F)cc2)C(=O)c2c(NC(=O)c3cnccn3)cnn21 [Co. No. 35] | 1.26 mg/kg |  |
| 114% | 2.24e-09 M | 185.23 °C |  | COc1cncc(C(=O)Nc2cnn3c2C(=O)N(c2ccc(C(F)(F)F)cc2)C[C@@H]3C)n1 [Co. No. 183] | 0.318 mg/kg |  |

More lines, now with the values behind:

| Structure (SMILES) | Emax (human mGlu2 receptor) | IC50 (human mGlu2 receptor) | melting point | GTPγS-hmGluR2 anGT Emax (human mGlu2 receptor) | ED50 (rats) | ED50 SCOP JNJ-42153605 (rats) |
| --- | --- | --- | --- | --- | --- | --- |
| Cc1ccncc1C(=O)Nc1cnn2c1C(=O)N(c1ccc(C(F)(F)F)c(C)c1)C[C@@H]2C [Co. No. 119] | 107% | 8.32e-09 M | 200.3 °C |  | > 0.63 mg/kg |  |
| C[C@H]1CN(c2ccc(C(F)(F)F)cc2)C(=O)c2c(NC(=O)c3ccccc3F)cnn21 [Co. No. 11] | 104% | 2.57e-09 M | 241.79 °C |  | > 2.5 mg/kg |  |
| Cc1cncc(C(=O)Nc2cnn3c2C(=O)N(c2ccc(C(F)(F)F)c(C)c2)C[C@@H]3C)c1 [Co. No. 115] | 107% | 3.39e-09 M | 151.53 °C |  | > 0.63 mg/kg |  |
| Cc1cc(C(=O)Nc2cnn3c2C(=O)N(c2ccc(C(F)(F)F)c(Cl)c2)C[C@@H]3C)nc(N)n1 [Co. No. 181] | 101% | 5.75e-09 M | 258.12 °C |  | > 0.63 mg/kg |  |
| C[C@H]1CN(c2ccc(C(F)(F)F)c(F)c2)C(=O)c2c(NC(=O)c3cccnc3)cnn21 [Co. No. 126] |  | 4.17e-09 M | 226.14 °C | 110% |  | >0.63 mg/kg |
| COc1cc(N2C[C@H](C)n3ncc(NC(=O)c4cccnc4)c3C2=O)ccc1C(F)(F)F [Co. No. 147] | 106% | 1.07e-08 M | 186.11 °C |  | > 0.63 mg/kg |  |
| COCc1cc(N2C[C@H](C)n3ncc(NC(=O)c4ccc(N)nc4)c3C2=O)ccc1C(F)(F)F [Co. No. 22] | 111% | 4.79e-09 M | 213.77 °C |  | > 2.5 mg/kg |  |
| Cc1cnc(N)c(C(=O)Nc2cnn3c2C(=O)N(c2ccc(S(F)(F)(F)(F)F)cc2)C[C@@H]3C)c1 [Co. No. 200] | 111% | 1.48e-09 M | 197.51 °C |  | > 0.63 mg/kg |  |
| Cc1cncc(C(=O)Nc2cnn3c2C(=O)N(c2ccc(C(F)(F)F)c(F)c2)C[C@@H]3C)c1 [Co. No. 128] | 103% | 6.92e-09 M | 163.67 °C |  | > 0.63 mg/kg |  |
| C[C@H]1CN(c2ccc(C(F)(F)F)cc2)C(=O)c2c(NC(=O)c3nccnc3N)cnn21 [Co. No. 206, 3-Amino-N-[(7S)-7-methyl-4-oxo-5-[4-(trifluoromethyl)phenyl]-6,7-dihydropyrazolo[1,5-a]pyrazin-3-yl]pyrazine-2-carboxamide] | 110% | 3.02e-09 M | 205.79 °C |  | 0.505 mg/kg |  |
| COc1cc(N2C[C@H](C)n3ncc(NC(=O)c4ccnc(C)c4)c3C2=O)ccc1C(F)(F)F [Co. No. 123] | 107% | 2.63e-08 M | 157.12 °C |  | > 0.63 mg/kg |  |
| C[C@H]1CN(c2ccc(C(F)(F)F)c(F)c2)C(=O)c2c(NC(=O)c3cncc(F)c3)cnn21 [Co. No. 124] | 109% | 9.55e-09 M | 217.01 °C |  | > 0.63 mg/kg |  |
| COc1cc(N2C[C@H](C)n3ncc(NC(=O)c4cnccn4)c3C2=O)ccc1C(F)(F)F [Co. No. 118] | 108% | 4.27e-09 M | 191.55 °C |  | > 0.63 mg/kg |  |
| C[C@H]1CN(c2ccc(Cl)c(Cl)c2)C(=O)c2c(NC(=O)c3ccc(N)nc3)cnn21 [Co. No. 3] | 110% | 1.62e-09 M | 189.94 °C |  | 0.32 mg/kg |  |
| CNc1ncccc1C(=O)Nc1cnn2c1C(=O)N(c1ccc(C(F)(F)F)cc1)C[C@@H]2C [Co. No. 194] | 113% | 1.29e-09 M | 161.97 °C |  | 0.318 mg/kg |  |
| C[C@H]1CN(c2ccc(C(F)(F)F)cc2)C(=O)c2c(NC(=O)c3ccccc3)cnn21 [Co. No. 16] | 108% | 3.39e-09 M | 201.48 °C |  | > 2.5 mg/kg |  |
| C[C@H]1CN(c2ccc(Cl)c(Cl)c2)C(=O)c2c(NC(=O)c3ccccn3)cnn21 [Co. No. 105] | 109% | 2.63e-09 M | 155.04 °C |  | > 0.63 mg/kg |  |
| Cc1cc(C(=O)Nc2cnn3c2C(=O)N(c2ccc(C(F)(F)F)c(C)c2)C[C@@H]3C)ccn1 [Co. No. 112] | 106% | 4.68e-09 M | 128.97 °C |  | > 0.63 mg/kg |  |
| C[C@H]1CN(c2ccc(C(F)(F)F)c(C#N)c2)C(=O)c2c(NC(=O)c3ccc(N)nc3)cnn21 [Co. No. 26] | 106% | 6.46e-09 M | 216.96 °C |  | > 2.5 mg/kg |  |
| C[C@H]1CN(c2ccc(SC(F)(F)F)cc2)C(=O)c2c(NC(=O)c3cccnc3)cnn21 [Co. No. 179] | 106% | 5.89e-09 M | 110.73 °C |  | > 0.63 mg/kg |  |
| C[C@H]1CN(c2ccc(S(F)(F)(F)(F)F)cc2)C(=O)c2c(NC(=O)c3cccnc3N)cnn21 [Co. No. 202] | 108% | 1.15e-09 M | 223.96 °C |  | 0.2 mg/kg |  |
| Cc1cc(N2C[C@H](C)n3ncc(NC(=O)c4cncc(F)c4)c3C2=O)ccc1C(F)(F)F [Co. No. 107] | 108% | 2.69e-09 M | 155.04 °C |  | > 0.63 mg/kg |  |
